Data on 20 substances can be found in the OligoGym collection.

HELM strings list units from the 5' end as sugar, base in round brackets, then linkage (d deoxyribose, r ribose, m 2'-O-methyl, p phosphodiester). Strings are as the collection lists them, not checked against the first reports. ss, as = sense and antisense strand; [lna] = locked nucleic acid (LNA); [una] = unlocked nucleic acid; [s4r] = 4'-thioribose; [fl2r] = 2'-fluoro
Also: test system not given here.

For this data set the following is noted: siRNA.
Substance “RNA1{r(G)p.r(G)p.r(A)p.r(C)p.r(A)p.r(U)p.r(U)p.r(C)p.r(A)p.r(G)p.r(A)p.r(A)p.r(C)p.r(A)p.r(A)p.r(G)p.r(A)p.r(A)p.r(A)p.[una](U)p.[una](U)}|RNA2{r(U)p.r(U)p.[una](U)p.r(C)p.r(U)p.r(U)p.r(G)p.r(U)p.r(U)p.r(C)p.r(U)p.r(G)p.r(A)p.r(A)p.r(U)p.r(G)p.r(U)p.r(C)p.r(C)p.[una](U)p.[una](U)}$$$RNA1{StrandType:ss}|RNA2{StrandType:as}$” yielded a target mRNA knockdown of 0%.

“RNA1{r(C)p.m(U)p.r(A)p.r(G)p.r(U)p.r(C)p.r(G)p.r(A)p.r(A)p.r(A)p.r(G)p.r(A)p.r(A)p.r(A)p.r(A)p.r(C)p.r(G)p.r(G)p.r(G)p.r(T)p.r(T)}|RNA2{r(C)p.r(C)p.r(C)p.r(G)p.r(U)p.r(U)p.r(U)p.r(U)p.r(C)p.r(U)p.r(U)p.r(U)p.r(C)p.r(G)p.r(A)p.r(C)p.m(U)p.r(A)p.r(G)p.r(T)p.r(T)}$$$RNA1{StrandType:ss}|RNA2{StrandType:as}$” registered a target mRNA knockdown of 56%.

Turning to “RNA1{r(U)p.r(C)p.r(C)p.r(U)p.r(C)p.r(G)p.r(U)p.r(C)p.r(G)p.r(U)p.r(C)p.r(U)p.r(G)p.r(U)p.r(U)p.r(C)p.[fl2r](U)p.r(A)p.r(A)p.r(T)p.r(T)}|RNA2{r(U)p.[fl2r](U)p.r(A)p.r(G)p.r(A)p.r(A)p.[fl2r](C)p.r(A)p.r(G)p.r(A)p.r(C)p.r(G)p.r(A)p.r(C)p.r(G)p.r(A)p.r(G)p.r(G)p.r(A)p.r(T)p.r(T)}$$$RNA1{StrandType:ss}|RNA2{StrandType:as}$”, the target mRNA knockdown came out at 74%.

Turning to “RNA1{m(U)p.r(U)p.m(A)p.r(A)p.m(A)p.r(G)p.m(G)p.r(G)p.m(C)p.r(G)p.m(A)p.r(G)p.m(A)p.r(A)p.m(G)p.r(A)p.m(C)p.r(C)p.m(G)p.r(T)p.r(T)}|RNA2{r(C)p.r(G)p.r(G)p.r(U)p.r(C)p.r(U)p.r(U)p.r(C)p.r(U)p.r(C)p.r(G)p.r(C)p.r(C)p.r(C)p.r(U)p.r(U)p.r(U)p.r(A)p.r(A)p.r(T)p.r(T)}$$$RNA1{StrandType:ss}|RNA2{StrandType:as}$”, the target mRNA knockdown came out at 67%.

For “RNA1{r(G)p.r(G)p.r(U)p.r(A)p.r(G)p.r(G)p.r(G)p.r(U)p.r(U)p.r(G)p.r(A)p.r(A)p.r(G)p.r(A)p.r(G)p.r(A)p.r(C)p.r(U)p.r(U)p.r(T)p.r(T)}|RNA2{r(A)p.r(A)p.r(G)p.r(U)p.r(C)p.r(U)p.r(C)p.r(U)p.r(U)p.r(C)p.r(A)p.r(A)p.r(C)p.r(C)p.r(C)p.m(U)p.r(A)p.r(C)p.r(C)p.r(T)p.r(T)}$$$RNA1{StrandType:ss}|RNA2{StrandType:as}$”, the target mRNA knockdown came to 95%.

As for “RNA1{r(G)p.r(U)p.r(A)p.r(U)p.r(G)p.r(A)p.r(C)p.r(C)p.r(G)p.r(A)p.r(C)p.r(U)p.r(A)p.r(C)p.r(G)p.r(C)p.r(G)p.r(U)p.r(A)p.r(T)p.r(T)}|RNA2{r(U)p.r(U)p.r(C)p.r(A)p.r(G)p.r(U)p.r(G)p.r(U)p.r(G)p.r(A)p.r(U)p.r(G)p.r(A)p.r(C)p.[una](A)p.r(C)p.r(U)p.r(U)p.r(G)p.r(T)p.r(T)}$$$RNA1{StrandType:ss}|RNA2{StrandType:as}$”, the target mRNA knockdown was 86%.

As for “RNA1{r(A)p.r(A)p.m(U)p.r(A)p.r(A)p.r(G)p.m(C)p.r(A)p.r(G)p.r(C)p.r(U)p.r(C)p.r(G)p.r(C)p.r(G)p.r(C)p.r(U)p.r(C)p.r(C)p.r(T)p.r(T)}|RNA2{r(G)p.r(G)p.r(A)p.r(G)p.r(C)p.r(G)p.r(C)p.r(G)p.r(A)p.r(G)p.r(C)p.m(U)p.r(G)p.r(C)p.m(U)p.r(U)p.r(A)p.r(U)p.r(U)p.r(T)p.r(T)}$$$RNA1{StrandType:ss}|RNA2{StrandType:as}$”, the target mRNA knockdown was 68%.

Regarding “RNA1{[fl2r](A)p.r(G)p.[fl2r](U)p.r(U)p.[fl2r](A)p.r(A)p.[fl2r](C)p.r(C)p.[fl2r](C)p.r(G)p.[fl2r](G)p.r(G)p.[fl2r](A)p.r(C)p.[fl2r](U)p.r(U)p.[fl2r](G)p.r(G)p.[fl2r](A)p.r(T)p.r(T)}|RNA2{r(U)p.r(C)p.r(C)p.r(A)p.r(A)p.r(G)p.r(U)p.r(C)p.r(C)p.r(C)p.r(G)p.r(G)p.r(G)p.r(U)p.r(U)p.r(A)p.r(A)p.r(C)p.r(U)p.r(T)p.r(T)}$$$RNA1{StrandType:ss}|RNA2{StrandType:as}$”, the target mRNA knockdown was 65%.

Regarding “RNA1{r(G)p.r(A)p.r(A)p.r(A)p.r(C)p.m(U)p.m(G)p.r(G)p.m(U)p.r(A)p.r(C)p.r(U)p.r(U)p.r(U)p.r(C)p.r(C)p.r(C)p.r(C)p.r(C)p.r(T)p.r(T)}|RNA2{r(G)p.r(G)p.r(G)p.r(G)p.r(G)p.r(A)p.r(A)p.r(A)p.r(G)p.m(U)p.r(A)p.r(C)p.r(C)p.r(A)p.r(G)p.r(U)p.r(U)p.r(U)p.r(C)p.r(T)p.r(T)}$$$RNA1{StrandType:ss}|RNA2{StrandType:as}$”, the target mRNA knockdown is 88%.

Consider “RNA1{r(A)p.r(U)p.r(C)p.r(G)p.r(U)p.r(C)p.r(G)p.r(U)p.m(C)p.r(A)p.r(G)p.r(G)p.r(G)p.m(U)p.r(A)p.r(A)p.r(G)p.r(G)p.r(U)p.r(T)p.r(T)}|RNA2{r(A)p.r(C)p.r(C)p.r(U)p.m(U)p.r(A)p.r(C)p.r(C)p.r(C)p.m(U)p.r(G)p.r(A)p.r(C)p.r(G)p.r(A)p.r(C)p.r(G)p.r(A)p.r(U)p.r(T)p.r(T)}$$$RNA1{StrandType:ss}|RNA2{StrandType:as}$”, for which the target mRNA knockdown is 47%.

Turning to “RNA1{m(C)p.r(C)p.m(U)p.r(C)p.m(C)p.r(C)p.m(C)p.r(A)p.m(U)p.r(C)p.m(C)p.r(C)p.m(C)p.r(U)p.m(U)p.r(U)p.m(U)p.r(A)p.m(A)p.r(T)p.r(T)}|RNA2{r(U)p.r(U)p.r(A)p.r(A)p.r(A)p.r(A)p.r(G)p.r(G)p.r(G)p.r(G)p.r(A)p.r(U)p.m(G)p.r(G)p.m(G)p.r(G)p.m(A)p.r(G)p.m(G)p.r(T)p.r(T)}$$$RNA1{StrandType:ss}|RNA2{StrandType:as}$”, the target mRNA knockdown was 48%.

Turning to “RNA1{r(C)p.r(U)p.r(G)p.r(G)p.r(U)p.r(A)p.r(A)p.r(A)p.r(G)p.r(C)p.r(A)p.r(U)p.r(U)p.r(C)p.r(A)p.r(G)p.r(U)p.r(A)p.r(U)p.d(T)p.d(T)}|RNA2{r(A)p.r(U)p.r(A)p.r(C)p.r(U)p.r(G)p.r(A)p.r(A)p.r(U)p.r(G)p.r(C)p.r(U)p.r(U)p.r(U)p.r(A)p.r(C)p.r(C)p.r(A)p.r(G)p.d(T)p.d(T)}$$$RNA1{StrandType:ss}|RNA2{StrandType:as}$”, the target mRNA knockdown was 82%.

“RNA1{m(A)p.m(A)p.r(C)p.r(C)p.r(C)p.m(A)p.r(C)p.r(C)p.m(A)p.r(C)p.m(A)p.r(G)p.r(C)p.m(U)p.m(A)p.r(G)p.m(A)p.m(A)p.r(C)p.m(U)p.m(U)}|RNA2{r(A)p.r(A)p.r(G)p.r(U)p.r(U)p.r(C)p.r(U)p.r(A)p.r(G)p.r(C)p.r(U)p.r(G)p.r(U)p.r(G)p.r(G)p.r(U)p.r(G)p.r(G)p.r(G)p.r(U)p.r(U)}$$$RNA1{StrandType:ss}|RNA2{StrandType:as}$” gave a target mRNA knockdown of 51%.

Take “RNA1{r(G)p.r(U)p.r(A)p.r(U)p.r(C)p.r(C)p.r(G)p.r(A)p.r(A)p.r(G)p.r(A)p.r(C)p.r(G)p.r(A)p.r(A)p.r(G)p.r(C)p.m(U)p.r(A)p.r(T)p.r(T)}|RNA2{m(U)p.r(A)p.r(G)p.r(C)p.r(U)p.r(U)p.r(C)p.r(G)p.r(U)p.r(C)p.r(U)p.r(U)p.r(C)p.r(G)p.r(G)p.r(A)p.m(U)p.r(A)p.r(C)p.r(T)p.r(T)}$$$RNA1{StrandType:ss}|RNA2{StrandType:as}$”: the target mRNA knockdown came out at 95%.

The substance “RNA1{r(G)p.r(G)p.m(U)p.m(A)p.r(G)p.r(A)p.r(A)p.m(U)p.r(A)p.r(G)p.r(G)p.r(U)p.r(U)p.r(U)p.r(U)p.r(C)p.r(C)p.r(C)p.r(C)p.r(T)p.r(T)}|RNA2{r(G)p.r(G)p.r(G)p.r(G)p.r(A)p.r(A)p.r(A)p.r(A)p.r(C)p.r(C)p.m(U)p.r(A)p.r(U)p.r(U)p.r(C)p.m(U)p.r(A)p.r(C)p.r(C)p.r(T)p.r(T)}$$$RNA1{StrandType:ss}|RNA2{StrandType:as}$” showed a target mRNA knockdown of 45%.

“RNA1{r(C)p.r(G)p.r(U)p.r(A)p.r(C)p.r(G)p.r(C)p.r(G)p.r(G)p.r(A)p.r(A)p.r(U)p.r(A)p.r(C)p.r(U)p.[s4r](U)p.[s4r](C)p.[s4r](G)p.[s4r](A)p.r(T)p.r(T)}|RNA2{[s4r](U)p.[s4r](C)p.[s4r](G)p.[s4r](A)p.r(A)p.r(G)p.r(U)p.r(A)p.r(U)p.r(U)p.r(C)p.r(C)p.r(G)p.r(C)p.r(G)p.r(U)p.r(A)p.r(C)p.r(G)p.r(T)p.r(T)}$$$RNA1{StrandType:ss}|RNA2{StrandType:as}$” registered a target mRNA knockdown of 35.1%.

On to “RNA1{m(U)p.r(A)p.r(A)p.r(A)p.r(C)p.r(U)p.r(U)p.r(U)p.r(G)p.r(G)p.r(G)p.r(G)p.r(A)p.r(A)p.r(G)p.r(G)p.r(G)p.r(A)p.r(G)p.r(T)p.r(T)}|RNA2{r(C)p.r(U)p.r(C)p.m(C)p.r(C)p.r(U)p.r(U)p.r(C)p.r(C)p.r(C)p.r(C)p.r(A)p.r(A)p.r(A)p.r(G)p.r(U)p.r(U)p.r(U)p.r(A)p.r(T)p.r(T)}$$$RNA1{StrandType:ss}|RNA2{StrandType:as}$”, for which the target mRNA knockdown was 72%.

For “RNA1{r(A)p.r(G)p.r(C)p.r(C)p.r(U)p.r(C)p.r(C)p.r(A)p.r(A)p.[fl2r](A)p.r(C)p.r(U)p.r(C)p.r(C)p.r(U)p.r(A)p.r(G)p.[fl2r](C)p.r(U)p.r(T)p.r(T)}|RNA2{r(A)p.r(G)p.r(C)p.[fl2r](U)p.r(A)p.r(G)p.r(G)p.r(A)p.r(G)p.r(U)p.r(U)p.r(U)p.r(G)p.r(G)p.r(A)p.r(G)p.r(G)p.r(C)p.r(U)p.r(T)p.r(T)}$$$RNA1{StrandType:ss}|RNA2{StrandType:as}$”, the target mRNA knockdown worked out at 69%.

Substance “RNA1{r(C)p.r(U)p.r(C)p.r(U)p.r(G)p.r(G)p.r(C)p.r(C)p.r(U)p.r(U)p.r(U)p.r(C)p.r(U)p.r(C)p.r(U)p.r(C)p.m(U)p.r(A)p.r(G)p.r(T)p.r(T)}|RNA2{r(C)p.r(U)p.r(A)p.r(G)p.r(A)p.r(G)p.r(A)p.r(G)p.r(A)p.r(A)p.r(A)p.r(G)p.r(G)p.r(C)p.r(C)p.r(A)p.r(G)p.r(A)p.r(G)p.r(T)p.r(T)}$$$RNA1{StrandType:ss}|RNA2{StrandType:as}$” came in with a target mRNA knockdown of 47%.

Consider “RNA1{r(C)p.r(U)p.r(U)p.r(A)p.r(C)p.r(G)p.r(C)p.r(U)p.r(G)p.r(A)p.r(G)p.r(U)p.r(A)p.r(C)p.r(U)p.r(U)p.r(C)p.r(G)p.r(A)p.d(T)p.d(T)}|RNA2{r(U)p.r(C)p.r(G)p.r(A)p.r(A)p.r(G)p.r(U)p.r(A)p.r(C)p.[lna](T)p.r(C)p.r(A)p.r(G)p.r(C)p.r(G)p.r(U)p.r(A)p.r(A)p.r(G)p.[lna](T)p.r(T)}$$$RNA1{StrandType:ss}|RNA2{StrandType:as}$”, for which the target mRNA knockdown was found to be 93%.
